Reference: ChEMBL document CHEMBL3885861, “Open TG-GATES”

Organism: Rattus norvegicus
Test: Open TG-GATES - Regimen: Daily Repeat
Type: toxicity, organism-based, Sprague-Dawley
Set-up: regimen Daily Repeat, gender Male, age 6 weeks
Conditions: in vivo, po, route gavage; for Bas / Eos / Fbg / Lym / MCH / MCHC / MCV / Mono / Neu / PT / Plat / RBC / Ret / WBC: tissue Blood; for KIDNEY_L / KIDNEY_R / KIDNEY_TOTAL: tissue Kidney
[1] = 3 mg/kg, […], tissue Plasma, dose level Low, time 28 day
[2] = 10 mg/kg, 72 h, dose level Middle, time 3 day
[3] = 10 mg/kg, 72 h, tissue Plasma, dose level Middle, time 3 day
[4] = 10 mg/kg, […], dose level Middle, time 7 day
[5] = 10 mg/kg, […], dose level Middle, time 14 day
[6] = 10 mg/kg, […], dose level Middle, time 28 day
[7] = 10 mg/kg, […], tissue Plasma, dose level Middle, time 7 day
[8] = 10 mg/kg, […], tissue Plasma, dose level Middle, time 14 day

Cc1cnc(NC(=O)C2=C(O)c3ccccc3S(=O)(=O)N2C)s1 [MELOXICAM]
ALP [1]: 620 IU/L | ALT [1]: 33.6 IU/L | AST [1]: 64.4 IU/L | BUN [1]: 18.2 mg/dL | CRE [1]: 0.5 mg/dL | DBIL [1]: 0.1 mg/dL | GLC [1]: 235.2 mg/dL | IP [1]: 7.2 mg/dL | K [1]: 3.9 meq/L | LDH [1]: 170.8 IU/L | Na [1]: 142 meq/L | RALB [1]: 3.5 g/dL | TBIL [1]: 0.2 mg/dL | TC [1]: 71.2 mg/dL | TG [1]: 121.6 mg/dL | TP [1]: 5.9 g/dL | gamma-GTP [1]: 1.2 IU/L | TERMINAL_BW [2]: 246.9 g | Bas [2]: 0.8% | Eos [2]: 0.6% | Fbg [2]: 248.8 mg/dL | Lym [2]: 71.4% | MCH [2]: 21.7 pg | MCHC [2]: 34.1% | MCV [2]: 63.6 fL | Mono [2]: 3.4% | Neu [2]: 23.4% | PT [2]: 11.7 s | Plat [2]: 127 x10_4/uL | RBC [2]: 635.2 x10_4/ul | Ret [2]: 6% | WBC [2]: 135.2 x10_2/uL | KIDNEY_L [2]: 1.1 g | KIDNEY_R [2]: 1.1 g | KIDNEY_TOTAL [2]: 2.3 g | ALP [3]: 919 IU/L | ALT [3]: 43.2 IU/L | AST [3]: 75.4 IU/L | CRE [3]: 0.4 mg/dL | DBIL [3]: 0.1 mg/dL | IP [3]: 7.5 mg/dL | K [3]: 4.1 meq/L | LDH [3]: 242.6 IU/L | Na [3]: 142.2 meq/L | RALB [3]: 3.5 g/dL | TBIL [3]: 0.2 mg/dL | TC [3]: 79 mg/dL | TG [3]: 129.2 mg/dL | TP [3]: 5.7 g/dL | gamma-GTP [3]: 1 IU/L | TERMINAL_BW [4]: 277.9 g | TERMINAL_BW [5]: 321.8 g | TERMINAL_BW [6]: 398.2 g | Bas [4]: 0.6% | Eos [4]: 1% | Fbg [4]: 223.8 mg/dL | Lym [4]: 73.8% | MCH [4]: 21.5 pg | MCHC [4]: 34.5% | MCV [4]: 62.2 fL | Mono [4]: 2.8% | Neu [4]: 21.8% | PT [4]: 11.9 s | RBC [4]: 633 x10_4/ul | Ret [4]: 5.4% | WBC [4]: 119.8 x10_2/uL | Bas [5]: 1% | Eos [5]: 0.8% | Fbg [5]: 234.2 mg/dL | Lym [5]: 74.2% | MCH [5]: 20.3 pg | MCHC [5]: 33.7% | MCV [5]: 60 fL | Mono [5]: 3% | Neu [5]: 21.2% | PT [5]: 11.6 s | Plat [5]: 116.5 x10_4/uL | RBC [5]: 699.4 x10_4/ul | Ret [5]: 4.5% | WBC [5]: 135.2 x10_2/uL | Bas [6]: 1% | Eos [6]: 1% | Fbg [6]: 242.8 mg/dL | Lym [6]: 73% | MCH [6]: 19.4 pg | MCHC [6]: 33.9% | MCV [6]: 57.2 fL | Mono [6]: 3.2% | Neu [6]: 21.4% | PT [6]: 11.5 s | Plat [6]: 118.5 x10_4/uL | RBC [6]: 740.6 x10_4/ul | Ret [6]: 3.4% | WBC [6]: 170.5 x10_2/uL | KIDNEY_L [4]: 1.2 g | KIDNEY_R [4]: 1.2 g | KIDNEY_TOTAL [4]: 2.4 g | KIDNEY_L [5]: 1.4 g | KIDNEY_R [5]: 1.4 g | KIDNEY_TOTAL [5]: 2.7 g | KIDNEY_L [6]: 1.5 g | KIDNEY_R [6]: 1.5 g | KIDNEY_TOTAL [6]: 3 g | ALP [7]: 952.8 IU/L | ALT [7]: 34.2 IU/L | AST [7]: 72.6 IU/L | CRE [7]: 0.5 mg/dL | DBIL [7]: 0.094 mg/dL | IP [7]: 7.5 mg/dL | K [7]: 4.2 meq/L | LDH [7]: 197.8 IU/L | Na [7]: 141.4 meq/L | RALB [7]: 3.4 g/dL | TBIL [7]: 0.2 mg/dL | TC [7]: 68.4 mg/dL | TG [7]: 96.4 mg/dL | TP [7]: 5.6 g/dL | gamma-GTP [7]: 3.4 IU/L | ALP [8]: 873.6 IU/L | ALT [8]: 38.6 IU/L | AST [8]: 72.8 IU/L | BUN [8]: 17.8 mg/dL | CRE [8]: 0.4 mg/dL | DBIL [8]: 0.1 mg/dL | IP [8]: 7.2 mg/dL | K [8]: 4 meq/L
